The text below walks through data of ChEMBL document CHEMBL5500348, “Novel 6-alkyl-bridged 4-arylalkylpiperazin-1-yl derivatives of azepino[4,3-b]indol-1(2H)-one as potent BChE-selective inhibitors showing protective effects against neurodegenerative insults” (Eur J Med Chem, 2024).

In one series the target is Acetylcholinesterase (Electrophorus electricus, UniProt O42275). The series can be described thus: Inhibition of electric eel AChE using acetylthiocholine iodide as substrate preincubated for 20 mins followed by substrate addition and measured after 10 mins by DTNB-reagent based Ellman's method. (In general: In Ellman's method for cholinesterases, released thiocholine reacts with DTNB.)
Acetylcholinesterase, sequence (O42275 whole entry): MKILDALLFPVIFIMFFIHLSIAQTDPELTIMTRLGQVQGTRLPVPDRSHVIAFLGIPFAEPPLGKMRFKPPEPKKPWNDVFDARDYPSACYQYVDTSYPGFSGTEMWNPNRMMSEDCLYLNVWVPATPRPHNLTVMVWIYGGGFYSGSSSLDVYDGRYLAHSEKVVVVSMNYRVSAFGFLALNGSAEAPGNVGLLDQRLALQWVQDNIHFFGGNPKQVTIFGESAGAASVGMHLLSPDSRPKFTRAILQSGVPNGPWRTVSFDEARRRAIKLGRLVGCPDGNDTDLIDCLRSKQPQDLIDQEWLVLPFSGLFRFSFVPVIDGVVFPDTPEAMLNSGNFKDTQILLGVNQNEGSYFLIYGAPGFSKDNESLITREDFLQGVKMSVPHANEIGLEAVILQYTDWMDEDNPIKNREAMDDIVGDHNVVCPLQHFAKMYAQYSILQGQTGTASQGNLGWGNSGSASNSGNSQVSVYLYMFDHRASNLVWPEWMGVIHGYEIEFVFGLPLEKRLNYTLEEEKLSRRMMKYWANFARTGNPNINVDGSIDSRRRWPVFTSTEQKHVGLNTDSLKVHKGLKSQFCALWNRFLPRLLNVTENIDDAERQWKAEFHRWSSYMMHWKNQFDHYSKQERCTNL

Series [1] concerns the target T1, Cholinesterase (Equus caballus, UniProt P81908). The series can be described thus: Inhibition of equine serum BuChE using butyrylthiocholine iodide as substrate preincubated for 20 mins followed by substrate addition and measured after 10 mins by DTNB based Ellman's method.
The target of series [2] is Acetylcholinesterase (Electrophorus electricus) (UniProt O42275). The series can be described thus: Inhibition of electric eel AChE using acetylthiocholine iodide as substrate at 20 uM preincubated for 20 mins followed by substrate addition and measured after 10 mins by DTNB-reagent based Ellman's method relative to control. Particulars: time 30.0 min.
Acetylcholinesterase (Electrophorus electricus), sequence (O42275 24-633 limits assumed): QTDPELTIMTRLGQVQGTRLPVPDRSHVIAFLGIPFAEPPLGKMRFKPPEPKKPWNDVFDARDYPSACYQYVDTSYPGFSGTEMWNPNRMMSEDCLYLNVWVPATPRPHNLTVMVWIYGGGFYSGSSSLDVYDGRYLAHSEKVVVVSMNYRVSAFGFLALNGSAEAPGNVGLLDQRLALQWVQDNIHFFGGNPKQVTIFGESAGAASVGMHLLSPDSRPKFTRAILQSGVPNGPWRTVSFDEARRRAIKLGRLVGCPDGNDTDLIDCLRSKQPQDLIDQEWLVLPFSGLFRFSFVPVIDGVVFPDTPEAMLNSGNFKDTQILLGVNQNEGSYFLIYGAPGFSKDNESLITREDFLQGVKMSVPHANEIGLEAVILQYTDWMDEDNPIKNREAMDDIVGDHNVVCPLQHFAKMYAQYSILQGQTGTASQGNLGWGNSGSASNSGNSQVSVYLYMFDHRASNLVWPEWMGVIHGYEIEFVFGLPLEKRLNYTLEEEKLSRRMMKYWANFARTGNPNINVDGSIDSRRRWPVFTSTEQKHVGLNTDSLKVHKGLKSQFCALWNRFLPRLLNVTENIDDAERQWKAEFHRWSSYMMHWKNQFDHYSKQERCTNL
In series [3] the target is Amyloid-beta precursor protein (Homo sapiens) (UniProt P05067). Put plainly: Inhibition of amyloid beta (unknown origin) aggregation at 100 uM relative to control.
Amyloid-beta precursor protein (Homo sapiens), sequence (P05067 whole entry): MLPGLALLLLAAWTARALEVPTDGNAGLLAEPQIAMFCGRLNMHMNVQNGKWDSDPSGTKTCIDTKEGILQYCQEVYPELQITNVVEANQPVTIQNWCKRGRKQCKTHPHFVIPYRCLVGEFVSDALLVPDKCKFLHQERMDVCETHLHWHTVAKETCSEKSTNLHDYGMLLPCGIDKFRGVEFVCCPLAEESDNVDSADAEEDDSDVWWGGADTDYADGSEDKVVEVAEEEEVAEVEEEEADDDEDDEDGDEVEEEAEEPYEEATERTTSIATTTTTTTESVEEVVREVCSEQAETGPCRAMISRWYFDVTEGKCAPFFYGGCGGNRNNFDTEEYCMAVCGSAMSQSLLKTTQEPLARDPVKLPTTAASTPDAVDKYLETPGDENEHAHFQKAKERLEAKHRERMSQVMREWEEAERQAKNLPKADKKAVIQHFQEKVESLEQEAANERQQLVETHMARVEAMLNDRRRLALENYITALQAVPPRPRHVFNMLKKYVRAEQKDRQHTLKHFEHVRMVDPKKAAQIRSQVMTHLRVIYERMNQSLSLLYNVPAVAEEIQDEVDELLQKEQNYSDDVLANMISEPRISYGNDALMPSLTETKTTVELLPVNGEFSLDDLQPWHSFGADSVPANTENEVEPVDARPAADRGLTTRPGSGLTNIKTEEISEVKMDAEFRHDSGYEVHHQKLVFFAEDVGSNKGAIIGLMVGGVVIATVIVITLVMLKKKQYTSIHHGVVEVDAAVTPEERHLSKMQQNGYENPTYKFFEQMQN
Series [4] has as its target Acetylcholinesterase (Homo sapiens) (UniProt P22303). Put plainly: Inhibition of AChE (unknown origin) at 10 uM relative to control.
The target of series [5] is T2, Cholinesterase (Homo sapiens, UniProt P06276). The series can be described thus: Inhibition of BChE (unknown origin) at 10 uM relative to control.
T2 sequence (P06276 whole entry): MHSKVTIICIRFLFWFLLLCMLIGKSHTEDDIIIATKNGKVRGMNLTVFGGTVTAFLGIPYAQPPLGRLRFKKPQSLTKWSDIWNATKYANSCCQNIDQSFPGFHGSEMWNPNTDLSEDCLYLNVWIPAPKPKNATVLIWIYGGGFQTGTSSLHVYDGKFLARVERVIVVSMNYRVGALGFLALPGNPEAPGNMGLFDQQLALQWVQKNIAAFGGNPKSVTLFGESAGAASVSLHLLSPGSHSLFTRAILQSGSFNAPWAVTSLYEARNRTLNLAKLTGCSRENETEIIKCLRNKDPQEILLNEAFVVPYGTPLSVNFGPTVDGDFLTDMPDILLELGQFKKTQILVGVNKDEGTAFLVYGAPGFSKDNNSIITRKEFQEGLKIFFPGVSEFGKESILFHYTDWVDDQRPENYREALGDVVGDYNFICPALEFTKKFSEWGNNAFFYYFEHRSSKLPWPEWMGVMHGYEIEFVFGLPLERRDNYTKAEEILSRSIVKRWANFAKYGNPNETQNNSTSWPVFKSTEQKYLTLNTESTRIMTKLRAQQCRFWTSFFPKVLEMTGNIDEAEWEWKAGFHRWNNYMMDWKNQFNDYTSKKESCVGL
The target in series [6] is Amyloid-beta precursor protein (Homo sapiens) (UniProt P05067). Put plainly: Inhibition of self induced amyloid-beta (1 to 40) (unknown origin) aggregation at 100 uM incubated for 2 hrs by ThT fluorescence based spectrofluorimetric analysis relative to control.
The target in series [7] is Cholinesterase (Equus caballus) (UniProt P81908). Put plainly: Inhibition of equine serum BuChE using butyrylthiocholine iodide as substrate at 20 uM preincubated for 20 mins followed by substrate addition and measured after 10 mins by DTNB based Ellman's method relative to control. Particulars: time 30.0 min.
Cholinesterase (Equus caballus), sequence (P81908 whole entry): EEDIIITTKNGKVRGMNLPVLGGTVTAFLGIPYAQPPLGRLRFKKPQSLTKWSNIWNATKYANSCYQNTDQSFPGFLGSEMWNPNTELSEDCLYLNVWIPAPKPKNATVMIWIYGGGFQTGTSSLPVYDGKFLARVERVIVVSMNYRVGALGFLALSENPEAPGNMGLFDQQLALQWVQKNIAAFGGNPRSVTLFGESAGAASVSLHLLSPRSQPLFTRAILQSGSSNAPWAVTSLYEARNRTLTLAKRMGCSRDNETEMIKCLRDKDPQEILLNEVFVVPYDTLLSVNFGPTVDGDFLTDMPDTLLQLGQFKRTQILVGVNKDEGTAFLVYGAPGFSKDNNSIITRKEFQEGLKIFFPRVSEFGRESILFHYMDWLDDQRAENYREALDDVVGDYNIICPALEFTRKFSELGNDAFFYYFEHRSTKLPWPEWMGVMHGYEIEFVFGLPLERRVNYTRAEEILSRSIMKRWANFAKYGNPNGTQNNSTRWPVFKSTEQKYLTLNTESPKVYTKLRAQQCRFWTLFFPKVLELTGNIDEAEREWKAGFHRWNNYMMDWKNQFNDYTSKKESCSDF
Another series addresses Albumin (Homo sapiens, UniProt P02768). Put plainly: Binding affinity to human serum albumin assessed as equilibrium dissociation constant by SPR analysis. Type of series: ADME. Background: SPR reads the build-up and loss of mass on a sensor chip optically.
Series [8] addresses T3, serum albumin (Homo sapiens, UniProt P02768). Put plainly: Binding affinity to human serum albumin assessed as dissociation rate constant (Koff) by SPR analysis. The series is classed as ADME. Particulars: read-out: K.
In series [9] the target is T3, serum albumin. The series can be described thus: Binding affinity to human serum albumin assessed as residence time by SPR analysis. The series is classed as ADME.
In series [10] the target is T1, Cholinesterase.
Description: Binding affinity to equine BChE in phosphate buffer at pH 8 assessed as equilibrium dissociation constant by SPR analysis
Series [11] deals with SH-SY5Y. The series can be described thus: Cytoprotective activity against H2O2-induced oxidative stress in human SH-SY5Y cells assessed as increase in cell viability at 100 uM incubated for 24 hrs by MTT assay. The series is classed as functional, cell-based. Background: Tetrazolium dyes change colour on reduction, which living cells bring about.
The target in series [12] is T2, Cholinesterase. The series can be described thus: Inhibition of human BuChE using butyrylthiocholine iodide as substrate preincubated for 20 mins followed by substrate addition and measured after 10 mins by DTNB based Ellman's method.
Series [13] addresses Acetylcholinesterase (Homo sapiens) (UniProt P22303). The series can be described thus: Inhibition of human AChE using acetylthiocholine iodide as substrate at 20 uM preincubated for 20 mins followed by substrate addition and measured after 10 mins by DTNB-reagent based Ellman's method relative to control. To be noted: time 30.0 min.
Series [14] addresses Cholinesterase (Equus caballus) (UniProt P81908). The series can be described thus: Mixed-type inhibition of equine serum BChE using varying concentrations of butyrylthiocholine iodide as substrate assessed as change in Km and Vmax at 0.05 to 0.5 uM by Lineweaver-Burk plot analysis. Particulars: dose 0.05-0.5 µM.
The target of series [15] is T1, Cholinesterase. The series can be described thus: Mixed-type inhibition of equine serum BChE using varying concentrations of butyrylthiocholine iodide as substrate assessed as inhibition constant by Lineweaver-Burk plot analysis.
A short description of series [16]: Cytotoxicity against human SH-SY5Y cells assessed as reduction in cell viability incubated for 24 hrs by MTT assay. Type of series: toxicity, cell-based.
Series [17] has as its system SH-SY5Y. The series can be described thus: Protection against NMDA-induced cytotoxicity in human SH-SY5Y cells assessed as increase in cell viability at 1 uM incubated for 24 hrs by MTT assay. The series is classed as functional, cell-based.
The subject of series [18] is SH-SY5Y. Put plainly: Protection against NMDA-induced cytotoxicity in human SH-SY5Y cells assessed as increase in cell viability at 5 to 20 uM incubated for 24 hrs by MTT assay. Type of series: functional, cell-based. Particulars: dose 5-20 µM.
The next series concerns equine serum BuChE. The series can be described thus: Selectivity ratio of IC50 for cytotoxicity against human SH-SY5Y cells to IC50 for inhibition of equine serum BuChE using butyrylthiocholine iodide as substrate. Particulars: probe butyrylthiocholine iodide, read-out: Ratio IC50. Type of series: toxicity, cell-based.
Series [19] relates to SH-SY5Y. Put plainly: Cytoprotective activity against H2O2-induced oxidative stress in human SH-SY5Y cells assessed as increase in cell viability at 20 uM incubated for 24 hrs by MTT assay. Type of series: functional, cell-based.
The nature of series [20]: Antioxidant activity assessed as ROS scavenging activity relative to control. The series is classed as functional.
Series [21] is described as follows: Aqueous solubility of compound in phosphate buffered solution at pH 7.4 incubated for 1 hr under shaking condition by HPLC analysis. Type of series: physicochemical.
For series [22], the system named is SH-SY5Y. The series can be described thus: Cytoprotective activity against H2O2-induced oxidative stress in human SH-SY5Y cells assessed as increase in cell viability incubated for 24 hrs by MTT assay. Type of series: functional, cell-based.

Molecules are shown by their SMILES. Converted amounts (≈) assume the structure as drawn. The source made the active and inactive calls. No cut-off for these calls is given here.

Acetylcholinesterase (Homo sapiens), sequence (P22303 whole entry): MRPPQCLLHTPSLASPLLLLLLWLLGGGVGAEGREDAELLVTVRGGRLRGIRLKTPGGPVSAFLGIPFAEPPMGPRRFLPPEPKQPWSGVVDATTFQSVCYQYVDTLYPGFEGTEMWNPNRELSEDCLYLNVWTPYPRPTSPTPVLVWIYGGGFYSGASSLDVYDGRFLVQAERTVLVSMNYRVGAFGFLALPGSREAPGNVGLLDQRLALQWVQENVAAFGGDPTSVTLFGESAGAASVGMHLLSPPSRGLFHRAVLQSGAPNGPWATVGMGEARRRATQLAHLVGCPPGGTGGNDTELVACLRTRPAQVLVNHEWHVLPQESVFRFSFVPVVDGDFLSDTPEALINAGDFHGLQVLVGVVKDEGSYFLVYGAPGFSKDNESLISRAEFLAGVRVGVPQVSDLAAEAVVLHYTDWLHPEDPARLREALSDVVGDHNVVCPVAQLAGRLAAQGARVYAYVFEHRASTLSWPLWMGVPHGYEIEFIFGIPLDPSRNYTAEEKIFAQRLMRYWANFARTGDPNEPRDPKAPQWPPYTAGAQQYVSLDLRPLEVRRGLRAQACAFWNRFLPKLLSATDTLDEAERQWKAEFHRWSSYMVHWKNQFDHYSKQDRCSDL
T1 sequence (P81908 whole entry): as the sequence (P81908 whole entry) above
T3 sequence (P02768 whole entry): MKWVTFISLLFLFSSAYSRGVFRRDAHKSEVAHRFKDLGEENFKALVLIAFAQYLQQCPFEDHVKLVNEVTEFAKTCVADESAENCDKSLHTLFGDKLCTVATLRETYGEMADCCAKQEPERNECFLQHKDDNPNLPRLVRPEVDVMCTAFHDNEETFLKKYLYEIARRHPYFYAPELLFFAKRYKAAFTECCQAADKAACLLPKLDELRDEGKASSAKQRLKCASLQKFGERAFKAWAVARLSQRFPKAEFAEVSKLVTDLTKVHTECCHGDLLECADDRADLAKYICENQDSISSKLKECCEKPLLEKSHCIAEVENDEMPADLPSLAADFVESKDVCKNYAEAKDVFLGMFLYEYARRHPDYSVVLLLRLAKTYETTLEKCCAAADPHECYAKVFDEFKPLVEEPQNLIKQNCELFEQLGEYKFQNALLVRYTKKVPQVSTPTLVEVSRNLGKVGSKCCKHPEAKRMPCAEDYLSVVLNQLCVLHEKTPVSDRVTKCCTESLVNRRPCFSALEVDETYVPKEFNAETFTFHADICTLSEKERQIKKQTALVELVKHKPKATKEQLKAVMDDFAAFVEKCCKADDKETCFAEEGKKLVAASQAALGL
Albumin, sequence (P02768 whole entry): as above

As for `O=C1NCCCc2c1c1ccccc1n2CCCCN1CCN(Cc2ccccc2)CC1`, the IC50 against Acetylcholinesterase was found to be 1.48 µM; on Cholinesterase [1], 2.64 µM.
With `O=C1NCCCc2c1c1ccccc1n2CCCCCN1CCN(Cc2ccncc2)CC1`, the midpoint of inhibition against Cholinesterase [1], the IC50, lay at 1.92 µM. This compound also registered an inhibition in series [2] of 2%.
For the compound `O=C1NCCCc2c1c1ccccc1n2CCCCCCCN1CCN(c2ccccc2F)CC1`, the IC50 on Acetylcholinesterase was 4.94 µM; against Cholinesterase [1] it was 0.906 µM.
`O=C1NCCCc2c1c1ccccc1n2CCCCCCCN1CCN(Cc2cccnc2)CC1` came in with an IC50 against Cholinesterase [1] of 0.466 µM. In series [2], the inhibition was 40%.
In turn, `O=C1NCCCc2c1c1ccccc1n2CCCCCN1CCN(Cc2cccnc2)CC1` came in with an IC50 at Cholinesterase [1] of 4.92 µM. The inhibition in series [2] came out at 37%.
`O=C1NCCCc2c1c1ccccc1n2CCCCCCCN1CCN(c2ccc(F)cc2)CC1` displayed an IC50 on Cholinesterase [1] of 10 µM. The compound also returned an inhibition in series [2] of 10%.
As for `CC(C)NCCCn1c2c(c3ccccc31)C(=O)NCCC2`, the inhibition is 50% in series [3], < 40% in [4] and < 40% at Cholinesterase [5].
As to `O=C1NCCCc2c1c1ccccc1n2CCCCCN1CCN(Cc2ccccc2)CC1`, the IC50 worked out at 1.83 µM against Acetylcholinesterase and 0.43 µM at Cholinesterase [1]. Besides, the inhibition in [6] amounted to 28%.
On to `O=C1NCCCc2c1c1ccccc1n2CCN1CCN(CCc2ccccc2)CC1`, for which half-maximal inhibition on Cholinesterase [1] (IC50) required 5.79 µM. In addition, the figures for the inhibition in series [2] and in series [6] were 8% and 55%, respectively.
In the case of `O=C1NCCCc2c1c1ccccc1n2CCCCCCCN1CCN(Cc2ccccc2)CC1`, the IC50 against Acetylcholinesterase is 0.402 µM; against Cholinesterase [1] it was 0.396 µM.
`CN1CCN(CCCCCn2c3c(c4ccccc42)C(=O)NCCC3)CC1`: the inhibition in series [2] and in [7] was 20% in each case.
At Cholinesterase [1], `O=C1NCCCc2c1c1ccccc1n2CCCCCN1CCN(c2ccccn2)CC1` gave an IC50 of 0.717 µM. For the same compound, the inhibition in [2] came to 13%.
As for `O=C1NCCCc2c1c1ccccc1n2CCCCN1CCN(CCc2ccccc2)CC1`, the IC50 on Cholinesterase [1] was determined as 0.528 µM. The inhibition came out at 36% in [2] and 21% in [6].
`O=C1NCCCc2c1c1ccccc1n2CCCCCCCN1CCN(c2ccccc2)CC1` yielded an IC50 at Cholinesterase [1] of 0.765 µM. Moreover, the inhibition in series [2] was found to be 17%. The figures for the Kd on Albumin and on Cholinesterase [10] were 1.64 µM and 0.759 µM, respectively. Also, the koff at serum albumin [8] was 0.069 s⁻¹. On serum albumin [9], the residence time is 0.25 min.
In the case of `O=c1c(O)c(-c2ccc(O)c(O)c2)oc2cc(O)cc(O)c12`, the result in the series on SH-SY5Y [11] was Active.
Regarding `O=C1NCCCc2c1c1ccccc1n2CCCCCCCN1CCN(c2ccccn2)CC1`, the figures for the IC50 against Acetylcholinesterase and at Cholinesterase [1] were 9.1 µM and 2.1 µM, respectively.
On to `O=C1NCCCc2c1c1ccccc1n2CCCCCN1CCN(c2ccccc2)CC1`, for which the IC50 on Cholinesterase [1] is 5.52 µM. In [2], this compound showed an inhibition of 31%.
For `O=C1NCCCc2c1c1ccccc1n2CCc1ccccc1`, the inhibition in series [3] is < 40%. In addition, the Kd on Albumin was 0.85 µM. At serum albumin [8], the koff was 0.017 s⁻¹. The residence time on serum albumin [9] is 1 min.
`O=C1NCCCc2c1c1ccccc1n2CCCCCCCN1CCN(CCc2ccccc2)CC1`: the IC50 against Acetylcholinesterase stood at 5.9 µM; at Cholinesterase [1], 0.065 µM; on Cholinesterase [12], 0.072 µM. The inhibition amounted to 39% in [13] and 62% in [6]. The inhibition result in [14] is “Active”. The Ki at Cholinesterase [15] worked out at 0.027 µM. The IC50 at 24 h in series [16] was determined as 60 µM. In the series on SH-SY5Y [17], the outcome was Active. Moreover, the result in the series on SH-SY5Y [18] and in the series on SH-SY5Y [19] was inactive. Moreover, in the series on equine serum BuChE, the selectivity ratio is 800. Also, in series [20], the Activity was < 10%. Besides, the Kd on Albumin is 3.53 µM; at Cholinesterase [10], 0.062 µM. At serum albumin [8], the koff was found to be 0.151 s⁻¹. Further, the residence time at serum albumin [9] is 0.1 min. The compound further registered a solubility at 1 h in series [21] of 6.1 µg/mL (≈ 12.5 µM).
Turning to `O=C1NCCCc2c1c1ccccc1n2CCCCCN1CCN(CCc2ccccc2)CC1`, the IC50 at Cholinesterase [1] is 0.163 µM; on Cholinesterase [12], 0.19 µM. Also, the inhibition came to 39% in [2], 20% in series [13] and 14% in series [6]. For the same compound, in the series on SH-SY5Y [22], the EC50 is ~1.5 µM. Further, the Activity entry in the series on SH-SY5Y [22] (dose 1-20 µM) is “Dose-Dependent Effect”; in [20], < 10%. For the same compound, the IC50 at 24 h in series [16] was determined as 88 µM. Besides, the outcome in the series with SH-SY5Y [17] was Active. In addition, in the series on SH-SY5Y [18], the result was inactive. Besides, in the series on equine serum BuChE, the selectivity ratio was determined as 500. Also, the Kd on Albumin was found to be 6.7 µM; on Cholinesterase [10] it was 0.148 µM. Besides, the koff at serum albumin [8] was 0.092 s⁻¹. The residence time at serum albumin [9] was 0.183 min. Further, in series [21], the solubility at 1 h amounted to 169 µg/mL (≈ 368 µM).
Take `O=C1NCCCc2c1c1ccccc1n2CCN1CCN(Cc2ccccc2)CC1`: the IC50 against Acetylcholinesterase was determined as 6.57 µM; against Cholinesterase [1], 6.59 µM. This compound displayed an inhibition in series [6] of 13%.
Regarding `CN1CCN(CCCCCCCn2c3c(c4ccccc42)C(=O)NCCC3)CC1`, the IC50 against Acetylcholinesterase is 15 µM; against Cholinesterase [1], 10 µM.
The corresponding values for `O=C1NCCCc2c1c1ccccc1n2CCCCCCCN1CCN(Cc2ccncc2)CC1` are 7.06 µM and 1.86 µM.
On Cholinesterase [1], `O=C1NCCCc2c1c1ccccc1n2CCCCCN1CCN(c2ccc(F)cc2)CC1` came in with an IC50 of 1.78 µM. This compound returned an inhibition in [2] of 28%.
The compound `O=C1NCCCc2c1c1ccccc1n2CCCCCN1CCN(c2ccccc2F)CC1` showed an IC50 against Cholinesterase [1] of 1 µM. The inhibition in series [2] amounted to 35%.

As a reminder, the IC50 is the concentration needed to halve the response being measured. In general, inhibition refers to the relative decrease from the control value, in per cent. For orientation: Kd means the concentration at which binding is half-saturated. The term residence time denotes how long the partners stay bound on average. For orientation: Ki means a dissociation constant, usually derived from enzyme kinetics or from competition with a known ligand. The term solubility denotes the concentration that dissolves in the medium under given conditions. A lower solubility goes with a poorly soluble substance. What is called EC50 is the concentration giving half of the maximal effect.
